According to patent US20080019949A1, “DIFFERENTIATION OF STEM CELLS FROM UMBILICAL CORD MATRIX INTO […] CELLS” (UNIVERSITY OF KANSAS, priority 2006, published 2008):

How the values were obtained:
[1] = test system: differentiated and undifferentiated HUMCs; test: Cellular uptake of Indocyanine Green (ICG); assay type: cell-based, human; details: 1 mg/mL ICG concentration
Experimental: Cellular uptake of Indocyanine Green (ICG.): ICG was dissolved to an initial concentration of 5 mg/mL in solvent. The solution was then diluted to 1 mg/mL in maturation media and added to the culture dish and incubated at 37° C. in a humidified incubator at 5% CO2 for 10-15 minutes. The cells were washed thoroughly with sterile PBS and then visualized under a light microscope. After examination, the PBS was then removed and maturation media was added and the cells incubated at 37° C. in a humidified incubator at 5% CO2 for ˜4-6 hours to confirm elimination of ICG.

[2] = test system: differentiated HUCM cells (hepatocyte-like cells)
Experimental: RNA isolation and Reverse Transcription Polymerase Chain Reaction (RT-PCR.): RNA was isolated from cells on RNeasy Quick spin columns (Qiagen, Valencia, Calif.) and converted to cDNA using random hexamers and SuperScript II reverse transcriptase (Invitrogen, Carlsbad, Calif.). PCR was performed using a BioRad I-Cycler. Products were resolved by 2% agarose gel electrophoresis and visualized by ethidium bromide staining. Expression of numerous hepatocyte-specific genes was analyzed, including CK18, cytokeratin 18; HNF3-β, hepatocyte nuclear factor 3β; CK19, cytokeratin 19; AFP, alpha fetoprotein; Alb, albumin; and CYP2B6, cytochrome P450 2 family.
Cytochromes were induced by treatment with; Rifamicin (RIF), 20 um; Penobarbital (PB), 2 mM; forskolin, 50 uM; 8-Bromo-cAMP, 1 mM (Tocris, Ellisville, Mo.); and vehicle controls for 24-hour period. mRNA was then harvested and then analyzed by RT-PCR.

SMILES	adverse effects on cells [1]	CYP3A4 expression (RT-PCR) [2]	PXR expression (RT-PCR) [2]	expression of inducible markers (CAR, PXR, PGC-1, PEPCK, PPAR-γ, CYP3A4, HNF4α) [2]
CC1(C)C(/C=C/C=C/C=C/C=C2\N(CCCCS(=O)(=O)O)c3ccc4ccccc4c3C2(C)C)=[N+](CCCCS(=O)(=O)[O-])c2ccc3ccccc3c21 [ICG, Indocyanine Green]	no adverse effects were observed			
CCC1(c2ccccc2)C(=O)NC(=O)NC1=O [PB, phenobarbital]		induced	induced	showed a number of hepatocyte-inducible genes or an increase in expression levels
C=C[C@@]1(C)CC(=O)[C@]2(O)[C@@]3(C)[C@@H](O)CCC(C)(C)[C@@H]3[C@H](O)[C@H](OC(C)=O)[C@@]2(C)O1 [forskolin]				showed a number of hepatocyte-inducible genes or an increase in expression levels
